Test results: US20050234073A1, “Methods of inhibiting inflammation” (priority 2003, published 2005)

Assays:
[1] = tested on: splenocytes; assay: Splenocyte / CD11c+ dendritic cell CD1d-restricted presentation to DN32 and 24.8 NKT cells (IL-2 ELISA); format: cell-based, mouse
Experimental: FIG. 17B is a series of bar charts showing IL-2 production of splenocytes isolated from wild type mice in the presence or absence of exogenous antigens. Splenocytes were incubated for 24 hours with BMS212122 and washed. Exogenous antigens ovalbumin or α-galcer was added as indicated. Splenocytes were then co cultured with: CD4^+ cells from an OT-II transgenic mouse (left); DN32 NKT cells (center); or autoreactive 24.8 NKT cells (right). IL-2 concentrations were measured by ELISA of 40 hour culture supernatants. *, p<0.05.
FIG. 17C is a bar chart showing IL-2 production of splenocytes or bone marrow derived dendritic cells co cultured with 24.8 NKT cells and incubated for 24 hours with BMS212122. Anti-CD1d mAb 1B1 or an isotype control was added as indicated. IL-2 concentrations were measured by ELISA of 40 hour culture supernatants. (nd=not detected) *, p<0.02.
(§1) APCs were incubated with 100 ng/mL α-galcer (kindly provided by Dr. H. Ploegh) for 3 hours, washed three times in PBS and aliquoted into a 96 well plate at 10^6 cells/mL. DN32 cells were added at 1:1 E:T ratio unless otherwise indicated. CD4^+ cells were isolated from spleens of OT-II transgenic mice using positive selection on CD4 magnetic beads (Miltenyi Biotec) and incubated with APCs and 100 μg/mL ovalbumin. […] Mouse IL-2 production was assessed by ELISA (OptEIA, BD PharMingen) of 24 or 40 hour culture supernatants. […]

[2] = tested on: BMDCs; assay: Bone marrow derived dendritic cell presentation to 24.8 and DN32 NKT cells (IL-2 ELISA); format: cell-based, mouse; settings: BMDCs cultured with inhibitor from day 6 to day 10
Experimental: FIG. 17D is a line graph showing IL-2 production in bone marrow derived dendritic cells incubated for 4 days with BMS212122 (◯) or vehicle (●) were treated with α-galcer for 3 hours, washed and co cultured with DN32. IL-2 concentrations were measured by ELISA of 24 hour culture supernatants. *, p<0.01.
as §1
Bone marrow was extracted from the femurs of C57BL6 or MTPmx1cre mice, washed once in PBS and resuspended in R10 supplemented with culture supernatant from murine GM-CSF transfected cells for a final concentration of 200 U/mL GM-CSF. […] Differentiated cells were harvested by gentle pipetting, washed in PBS, and analyzed by flow cytometry for surface expression of CD11c and I-A^b. […] After 5 days cells were dislodged by gentle pipetting, analyzed by flow cytometry and assayed for antigen presentation. […]

[3] = tested on: HepG2 cells; settings: cited from earlier work
[4] = tested on: moDCs; assay: Flow cytometry of surface CD1d and MHC class I on human monocyte-derived DCs; format: cell-based; settings: moDCs after 5 days in presence of inhibitor
Text: FIG. 20F is a series of flow cytometric analysis showing surface staining of human monocyte-derived DCs were stained with 42.1 (CD1d), anti-HLA-A,B,C (MHC class I), or isotype control antibodies (dashed lines) after 4 days of differentiation in the presence of BMS212122 (gray lines) or vehicle control (black lines).
Bone marrow was extracted from the femurs of C57BL6 or MTPmx1cre mice, washed once in PBS and resuspended in R10 supplemented with culture supernatant from murine GM-CSF transfected cells for a final concentration of 200 U/mL GM-CSF. BMDCs were then cultured in bacteriological plates for 12-14 days as described. Differentiated cells were harvested by gentle pipetting, washed in PBS, and analyzed by flow cytometry for surface expression of CD11c and I-A^b. […] After 5 days cells were dislodged by gentle pipetting, analyzed by flow cytometry and assayed for antigen presentation.
Mouse cells were stained using the following antibodies: FITC-conjugated α-CD1d (1B1, PharMingen); PE-conjugated α-CD11c (HL3, PharMingen); FITC-conjugated α-1-A^d (AMS-32.1, PharMingen); PE-conjugated α-CD69 (H1.2F3, PharMingen); PE-conjugated α-B220 (RA3-6B2, PharMingen). […] Staining was performed in the presence of Via-Probe (PharMingen) and analyzed with a FACSort flow cytometer (Becton Dickinson). […]

[5] = tested on: splenocytes, CD11c-positive splenic DCs and BMDCs; assay: MHC class II-restricted presentation of ovalbumin to OT-II CD4+ T cells (IL-2 ELISA); format: cell-based, mouse
Experimental: FIG. 17F is a bar chart showing 11-2 production of CD11c^+ splenocytes incubated for 24 hours with BMS212122 or bone marrow derived dendritic cells incubated for 3 days with BMS212122 were washed and co cultured with 100 μg/mL ovalbumin and 100,000 CD4^+ cells from an OT-II transgenic mouse. IL-2 concentrations were measured by ELISA of 24 hour culture supernatants.
APCs were incubated with 100 ng/mL α-galcer (kindly provided by Dr. H. Ploegh) for 3 hours, washed three times in PBS and aliquoted into a 96 well plate at 10^6 cells/mL. DN32 cells were added at 1:1 E:T ratio unless otherwise indicated. CD4^+ cells were isolated from spleens of OT-II transgenic mice using positive selection on CD4 magnetic beads (Miltenyi Biotec) and incubated with APCs and 100 μg/mL ovalbumin. The 24.8 NKT cell line was incubated with APCs in the absence of added antigen at E:T=2:1 unless otherwise indicated. Mouse IL-2 production was assessed by ELISA (OptEIA, BD PharMingen) of 24 or 40 hour culture supernatants. APCs were treated with BMS212122 (10 uM dissolved in DMSO; kindly provided by Bristol Myers Squibb, New Jersey) as indicated and washed prior to addition of T or NKT cells. […]

Structure (SMILES): Cc1ccc2c(nc(C)n2CCCCC2(C(=O)NCC(F)(F)F)c3ccccc3-c3ccccc32)c1NC(=O)c1ccccc1-c1ccc(C(F)(F)F)cc1 [BMS212122, 9-[4-[2,5-Dimethyl-4-[[[4′-(trifluoromethyl)[1,1′-biphenyl]-2-yl]carbonyl]amino]-1H-benzimidazol-1-yl]butyl]-N-(2,2,2-trifluoroethyl)-9H-fluorene-9-carboxamide]
- effect on presentation of an endogenous ligand to 24.8 NKT cells ([1]; CD11c-positive dendritic cell population from splenocytes): highly pronounced
- ability to present exogenous and endogenous CD1d-restricted antigens ([1]; splenocytes incubated 24 hours with inhibitor prior to addition of NKT cells): reduced
- presentation of α-galcer to DN32 cells [2]: significant effect
- secretion of apoB from HepG2 cells [3]: prevents secretion
- surface CD1d mean fluorescence intensity ([4]; vehicle 4.2, p<0.05): 3.3
- MHC class I mean fluorescence intensity ([4]; vehicle 70): 76
- presentation of ovalbumin to CD4+ MHC class II-restricted ovalbumin-specific T cells ([5]; CD11c-positive splenic DCs and BMDCs, inhibitor-treated): efficient presentation
- splenocyte presentation of ovalbumin to MHC class II-restricted T cell line OT-II ([5]; splenocytes, 24 hours inhibitor): no effect
